Laboratory results as given in patent US20190263796A1, “LIM KINASE INHIBITORS, PHARMACEUTICAL COMPOSITION AND METHOD OF USE IN LIMK-MEDIATED DISEASES” (CELLIPSE, priority 2016, published 2019).
pIC50: −log10 of the molar value. Values belong to the compound of their own block, whether it stands above or below them.

Tests used:
[1] = tested on: Phospho-Ser3-Cofilin/Total Cofilin; test: Western blot cofilin phosphorylation, Kasumi-1; format: cell-based; details: Homo sapiens; Kasumi-1 cells; 2 h
Protocol: (§1) Kasumi-1 cell line was originally purchased from the American Type Culture Collection (ATCC). Kasumi-1 cells are cultured in RPMI 1640 20% (v/v) FBS supplemented with 100 U/mL^−1 penicillin, 0.1 mg·mL^−1 streptomycin (PAN Biotech P06-07100). Cells were maintained at 37° C. with 5% CO2.
In a 6 wells plate (Falcon 353046), 2·10^6 cells in 1.5 mL medium are treated for 2 h with compounds. Cells are then collected and cell lysis is performed at 4° C. using RIPA buffer supplemented with protease inhibitors cocktail (Sigma-Aldrich P8340) and phosphatase inhibitors cocktail (Sigma-Aldrich P5726). Following centrifugation 30 min 15000 g 4° C., supernatants are mixed with Laemmli buffer and denaturation is performed by heating 5 min 95° C. 10 μL of samples are subjected to electrophoresis on 15% SDS-PAGE. After electro-transfer (Mini Transblot, Bio-Rad), the PVDF membrane (Merck-Millipore Immobilon P IPVH00010) is blocked with Tris Buffered Saline, pH 7.4 (TBS) with 0.1% Tween 20 and 5% BSA for 1 h RT under agitation. […] For each concentration of compound, ratio between phosphorylated cofilin and total cofilin is determined. This ratio is then expressed as percentage of control ratio (i.e., ratio from DMSO treated cells). IC50 Phospho-Ser3-Cofilin/Total Cofilin is then determined.

[2] = tested on: Phospho-Ser3-Cofilin/Total Cofilin; test: Western blot cofilin phosphorylation, HL-60; format: cell-based; details: HL-60 cells, 2 h
Protocol: HL-60 cell line was originally purchased from the Leibniz-Institut Deutsche Sammlung von Mikroorganismen und Zellkulturen GmbH (DSMZ). HL-60 cells are cultured in RPMI 1640 10% (v/v) FBS supplemented with 100 U/mL^−1 penicillin, 0.1 mg·mL^−1 streptomycin (PAN Biotech P06-07100). Cells were maintained at 37° C. with 5% CO2.
(§2) In a 6 wells plate (Falcon 353046), 2·10^6 cells in 1.5 mL medium are treated for 2 h with compounds. Cells are then collected and cell lysis is performed at 4° C. using RIPA buffer supplemented with protease inhibitors cocktail (Sigma-Aldrich P8340) and phosphatase inhibitors cocktail (Sigma-Aldrich P5726). Following centrifugation 30 min 15000 g 4° C., supernatants are mixed with Laemmli buffer and denaturation is performed by heating 5 min 95° C. 10 μL of samples are subjected to electrophoresis on 15% SDS-PAGE. After electro-transfer (Mini Transblot, Bio-Rad), the PVDF membrane (Merck-Millipore Immobilon P IPVH00010) is blocked with Tris Buffered Saline, pH 7.4 (TBS) with 0.1% Tween 20 and 5% BSA for 1 h RT under agitation. The membrane was rinsed 3 times 10 min at room temperature under agitation with TBS, 0.1% Tween-20 (TBST) and then 1 h at room temperature with anti-phospho-Ser3-cofilin (Cell Signaling Technology #3313, 1/1000 dilution) antibody or anti-cofilin (Cell Signaling Technology #3312, 1/1000 dilution) diluted in TBS, 0.1% Tween 20 and 1% BSA. The membrane is then rinsed 3 times 10 min at room temperature under agitation in TBST and incubated for 1 h with anti-rabbit secondary antibody, horseradish peroxidase conjugated (Jackson Immunoresearch #711-036-152) under agitation at room temperature. After three washes 10 min at room temperature in TBST, the detection of total or phosphorylated cofilin was performed using chemiluminescence kit ECL™ Plus (GE Healthcare RPN2132). For each concentration of compound, ratio between phosphorylated cofilin and total cofilin is determined. This ratio is then expressed as percentage of control ratio (i.e., ratio from DMSO treated cells). IC50 Phospho-Ser3-Cofilin/Total Cofilin is then determined.

B-Raf(V599E)(h) = biological target: T1, B-Raf(V599E)(h) (Homo sapiens, UniProt P15056, V600E); test: KinaseProfiler panel: B-Raf(V599E)(h); format: biochemical; details: residual activity, 5 μM inhibitor, Km ATP
T1 construct: purchased Merck-Millipore (KinaseProfiler panel service)
Protocol: (§3) Kinase selectivity was performed on a panel of 58 recombinant protein kinases. The assays were performed in the presence of 5 μM inhibitor at the respective Km ATP for each kinase, using the KinaseProfiler panel service (Merck-Millipore). Residual activity measured in the presence of […] inhibitor is expressed as the percent of activity determined in the absence of inhibitor.

IR(h), activated = biological target: T2, IR(h), activated (Homo sapiens, UniProt P06213); test: KinaseProfiler panel: IR(h), activated; format: biochemical; details: residual activity, 5 μM inhibitor, Km ATP
T2 construct: purchased Merck-Millipore (KinaseProfiler panel service)
Protocol: as §3

MRCKβ(h) = biological target: T3, MRCKβ(h) (Homo sapiens, UniProt Q9Y5S2); test: KinaseProfiler panel: MRCKβ(h); format: biochemical; details: residual activity, 5 μM inhibitor, Km ATP
T3 construct: purchased Merck-Millipore (KinaseProfiler panel service)
Protocol: as §3

PKBα(h) = biological target: T4, PKBα(h) (Homo sapiens, UniProt P31749); test: KinaseProfiler panel: PKBα(h); format: biochemical; details: residual activity, 5 μM inhibitor, Km ATP
T4 construct: purchased Merck-Millipore (KinaseProfiler panel service)
Protocol: as §3

IGF-1R(h), activated = biological target: T5, IGF-1R(h), activated (Homo sapiens, UniProt P08069); test: KinaseProfiler panel: IGF-1R(h), activated; format: biochemical; details: residual activity, 5 μM inhibitor, Km ATP
T5 construct: purchased Merck-Millipore (KinaseProfiler panel service)
Protocol: as §3

B-Raf(h) = B-Raf(h) (Homo sapiens, UniProt P15056); test: KinaseProfiler panel: B-Raf(h); format: biochemical; set-up: purchased Merck-Millipore (KinaseProfiler panel service); details: residual activity, 5 μM inhibitor, Km ATP
Protocol: as §3

PDGFRα(h) = biological target: T6, PDGFRα(h) (Homo sapiens, UniProt P16234); test: KinaseProfiler panel: PDGFRα(h); format: biochemical; details: residual activity, 5 μM inhibitor, Km ATP
T6 construct: purchased Merck-Millipore (KinaseProfiler panel service)
Protocol: as §3

cKit(D816H)(h) = biological target: T7, cKit(D816H)(h) (Homo sapiens, UniProt P10721, D816H); test: KinaseProfiler panel: cKit(D816H)(h); format: biochemical; details: residual activity, 5 μM inhibitor, Km ATP
T7 construct: purchased Merck-Millipore (KinaseProfiler panel service)
Protocol: as §3

[3] = tested on: Phospho-Ser3-Cofilin/Total Cofilin; test: Western blot of cellular cofilin phosphorylation status, MV4-11 (II.4); format: cell-based; details: Homo sapiens; MV4-11 cells; 2 h treatment
Protocol: as §1, with “MV4-11” for “Kasumi-1”, “10%” for “20%”, “P06-07100) and 2 mM Glutamine (Sigma-Aldrich 59202C).” for “P06-07100).”
as §2, with “10 min RT under agitation” for “10 min at room temperature under agitation”, “1 h RT with anti-phospho-Ser3-cofilin” for “1 h at room temperature with anti-phospho-Ser3-cofilin”, “for 1 hour with anti-rabbit” for “for 1 h with anti-rabbit”, “10 min RT in TBST,” for “10 min at room temperature in TBST,”, “control ratio (i.e ratio from” for “control ratio (i.e., ratio from”, “cells). IC50 is then” for “cells). IC50 Phospho-Ser3-Cofilin/Total Cofilin is then”

Flt4(h) = biological target: T8, Flt4(h) (Homo sapiens, UniProt P35916); test: KinaseProfiler panel: Flt4(h); format: biochemical; details: residual activity, 5 μM inhibitor, Km ATP
T8 construct: purchased Merck-Millipore (KinaseProfiler panel service)
Protocol: as §3

T8 sequence (P35916 25-1363): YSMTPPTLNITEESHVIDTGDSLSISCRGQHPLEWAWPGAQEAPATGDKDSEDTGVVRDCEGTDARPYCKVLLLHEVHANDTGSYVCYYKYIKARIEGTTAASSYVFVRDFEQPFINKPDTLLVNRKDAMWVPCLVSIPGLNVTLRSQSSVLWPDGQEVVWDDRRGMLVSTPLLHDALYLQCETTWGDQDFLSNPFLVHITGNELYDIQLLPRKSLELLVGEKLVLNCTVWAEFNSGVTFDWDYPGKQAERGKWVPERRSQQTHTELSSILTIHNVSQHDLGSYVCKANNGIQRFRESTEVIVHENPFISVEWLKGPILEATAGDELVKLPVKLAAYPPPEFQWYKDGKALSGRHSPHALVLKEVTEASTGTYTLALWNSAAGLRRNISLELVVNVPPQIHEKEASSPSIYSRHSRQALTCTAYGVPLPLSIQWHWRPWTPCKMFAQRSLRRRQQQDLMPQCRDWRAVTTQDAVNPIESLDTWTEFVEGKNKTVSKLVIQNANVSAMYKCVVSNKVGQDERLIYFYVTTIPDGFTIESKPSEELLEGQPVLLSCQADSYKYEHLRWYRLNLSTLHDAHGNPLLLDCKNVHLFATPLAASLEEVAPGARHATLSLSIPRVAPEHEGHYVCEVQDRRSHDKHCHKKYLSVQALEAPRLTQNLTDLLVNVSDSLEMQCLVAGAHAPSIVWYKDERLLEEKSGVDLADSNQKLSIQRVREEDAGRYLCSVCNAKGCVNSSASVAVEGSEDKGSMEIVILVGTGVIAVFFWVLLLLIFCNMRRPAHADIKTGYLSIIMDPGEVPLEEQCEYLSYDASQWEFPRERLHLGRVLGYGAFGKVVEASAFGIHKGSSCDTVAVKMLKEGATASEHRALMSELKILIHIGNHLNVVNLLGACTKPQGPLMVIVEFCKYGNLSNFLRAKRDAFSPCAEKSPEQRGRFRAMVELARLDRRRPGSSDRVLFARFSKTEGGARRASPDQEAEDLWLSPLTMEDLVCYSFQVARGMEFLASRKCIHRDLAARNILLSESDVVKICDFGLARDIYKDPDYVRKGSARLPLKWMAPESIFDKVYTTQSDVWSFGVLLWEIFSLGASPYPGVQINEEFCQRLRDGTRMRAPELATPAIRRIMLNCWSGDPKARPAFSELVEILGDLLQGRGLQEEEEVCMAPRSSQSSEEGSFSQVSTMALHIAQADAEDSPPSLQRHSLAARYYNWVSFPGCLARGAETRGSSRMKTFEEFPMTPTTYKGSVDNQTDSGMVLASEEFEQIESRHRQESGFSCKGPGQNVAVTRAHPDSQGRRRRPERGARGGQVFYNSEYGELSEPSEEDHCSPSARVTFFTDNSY
T4 sequence (P31749 whole entry): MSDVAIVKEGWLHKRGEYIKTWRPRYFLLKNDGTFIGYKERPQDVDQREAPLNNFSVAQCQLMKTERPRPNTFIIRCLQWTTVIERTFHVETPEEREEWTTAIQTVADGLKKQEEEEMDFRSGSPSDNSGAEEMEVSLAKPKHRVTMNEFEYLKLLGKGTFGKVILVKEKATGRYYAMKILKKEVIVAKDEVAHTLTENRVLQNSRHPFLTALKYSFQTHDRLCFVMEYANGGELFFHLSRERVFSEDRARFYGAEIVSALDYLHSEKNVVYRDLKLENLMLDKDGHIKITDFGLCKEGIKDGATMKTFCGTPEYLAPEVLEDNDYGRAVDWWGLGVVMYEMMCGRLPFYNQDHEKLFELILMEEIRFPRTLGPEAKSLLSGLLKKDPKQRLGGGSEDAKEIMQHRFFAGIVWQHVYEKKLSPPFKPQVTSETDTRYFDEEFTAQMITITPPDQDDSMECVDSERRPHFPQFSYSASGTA
T3 sequence (Q9Y5S2 whole entry): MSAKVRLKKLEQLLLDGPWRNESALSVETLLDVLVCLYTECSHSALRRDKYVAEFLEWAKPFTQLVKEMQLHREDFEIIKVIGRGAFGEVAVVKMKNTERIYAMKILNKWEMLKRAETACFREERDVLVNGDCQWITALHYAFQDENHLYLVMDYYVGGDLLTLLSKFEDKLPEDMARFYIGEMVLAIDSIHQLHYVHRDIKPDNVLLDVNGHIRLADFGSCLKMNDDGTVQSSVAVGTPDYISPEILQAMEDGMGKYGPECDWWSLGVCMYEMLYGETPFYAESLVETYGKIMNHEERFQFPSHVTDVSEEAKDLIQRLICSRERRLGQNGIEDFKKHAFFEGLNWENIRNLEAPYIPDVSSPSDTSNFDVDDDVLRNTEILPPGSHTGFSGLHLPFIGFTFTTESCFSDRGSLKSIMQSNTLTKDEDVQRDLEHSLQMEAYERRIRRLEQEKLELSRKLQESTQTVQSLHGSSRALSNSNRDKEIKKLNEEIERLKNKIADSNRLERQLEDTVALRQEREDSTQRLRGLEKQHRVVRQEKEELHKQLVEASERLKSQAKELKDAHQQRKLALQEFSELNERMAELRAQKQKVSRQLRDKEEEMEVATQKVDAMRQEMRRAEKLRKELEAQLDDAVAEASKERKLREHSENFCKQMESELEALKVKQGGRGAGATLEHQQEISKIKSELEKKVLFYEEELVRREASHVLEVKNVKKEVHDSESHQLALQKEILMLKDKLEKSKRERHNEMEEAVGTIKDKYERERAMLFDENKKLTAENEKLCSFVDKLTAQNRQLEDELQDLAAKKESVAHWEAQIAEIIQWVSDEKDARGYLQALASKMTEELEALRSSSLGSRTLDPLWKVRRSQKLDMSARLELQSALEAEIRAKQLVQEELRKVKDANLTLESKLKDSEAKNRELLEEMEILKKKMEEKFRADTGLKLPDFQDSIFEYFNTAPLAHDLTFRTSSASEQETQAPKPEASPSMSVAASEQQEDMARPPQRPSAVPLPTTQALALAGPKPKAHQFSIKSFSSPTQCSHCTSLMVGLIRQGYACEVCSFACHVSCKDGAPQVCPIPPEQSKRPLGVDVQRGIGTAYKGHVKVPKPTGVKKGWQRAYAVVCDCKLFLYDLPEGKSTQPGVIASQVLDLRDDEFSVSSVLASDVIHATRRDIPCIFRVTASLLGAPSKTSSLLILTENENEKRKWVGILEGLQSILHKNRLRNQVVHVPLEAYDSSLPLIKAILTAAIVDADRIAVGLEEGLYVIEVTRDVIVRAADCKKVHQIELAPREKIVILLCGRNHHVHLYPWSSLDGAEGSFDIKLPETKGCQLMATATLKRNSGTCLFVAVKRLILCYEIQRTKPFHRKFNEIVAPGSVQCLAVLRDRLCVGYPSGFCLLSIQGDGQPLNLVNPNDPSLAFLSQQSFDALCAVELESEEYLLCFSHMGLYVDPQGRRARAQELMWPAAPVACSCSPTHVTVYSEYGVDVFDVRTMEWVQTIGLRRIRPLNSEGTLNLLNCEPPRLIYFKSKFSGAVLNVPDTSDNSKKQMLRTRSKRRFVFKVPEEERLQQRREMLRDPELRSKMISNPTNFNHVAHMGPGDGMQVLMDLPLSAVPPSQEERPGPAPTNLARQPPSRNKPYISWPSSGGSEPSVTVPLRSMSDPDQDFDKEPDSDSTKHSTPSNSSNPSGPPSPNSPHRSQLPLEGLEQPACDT
T1 sequence (P15056 416-766 V600E limits assumed): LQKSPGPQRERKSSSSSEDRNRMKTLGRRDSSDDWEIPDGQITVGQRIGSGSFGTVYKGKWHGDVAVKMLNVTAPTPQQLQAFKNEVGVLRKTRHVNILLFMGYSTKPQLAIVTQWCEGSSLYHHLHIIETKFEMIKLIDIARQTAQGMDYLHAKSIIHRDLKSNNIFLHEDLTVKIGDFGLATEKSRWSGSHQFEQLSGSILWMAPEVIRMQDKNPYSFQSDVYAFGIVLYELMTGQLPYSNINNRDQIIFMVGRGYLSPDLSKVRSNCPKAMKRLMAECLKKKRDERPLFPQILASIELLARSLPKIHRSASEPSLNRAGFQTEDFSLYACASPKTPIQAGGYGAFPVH
B-Raf(h), sequence (P15056 whole entry): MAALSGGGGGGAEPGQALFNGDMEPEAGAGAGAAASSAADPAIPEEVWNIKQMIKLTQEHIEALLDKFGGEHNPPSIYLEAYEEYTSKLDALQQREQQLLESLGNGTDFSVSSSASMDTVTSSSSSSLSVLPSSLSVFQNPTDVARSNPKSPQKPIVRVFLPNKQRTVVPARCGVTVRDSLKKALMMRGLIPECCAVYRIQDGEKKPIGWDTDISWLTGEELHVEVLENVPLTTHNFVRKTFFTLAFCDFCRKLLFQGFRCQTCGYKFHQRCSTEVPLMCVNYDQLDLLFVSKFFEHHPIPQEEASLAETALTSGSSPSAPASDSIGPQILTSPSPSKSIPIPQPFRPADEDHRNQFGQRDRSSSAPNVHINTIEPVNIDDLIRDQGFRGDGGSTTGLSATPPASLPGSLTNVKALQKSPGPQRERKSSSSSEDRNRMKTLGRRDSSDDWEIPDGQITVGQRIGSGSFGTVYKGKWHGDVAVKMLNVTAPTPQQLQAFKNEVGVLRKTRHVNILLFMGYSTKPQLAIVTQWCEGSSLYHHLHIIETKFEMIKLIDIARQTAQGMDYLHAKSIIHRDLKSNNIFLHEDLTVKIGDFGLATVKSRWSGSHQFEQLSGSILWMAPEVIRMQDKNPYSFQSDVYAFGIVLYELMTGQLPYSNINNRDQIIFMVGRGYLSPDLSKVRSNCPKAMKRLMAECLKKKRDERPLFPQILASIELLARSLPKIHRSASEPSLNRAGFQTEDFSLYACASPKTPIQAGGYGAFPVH

pIC50 [1]: > 6.70
pIC50 [2]: > 6.70
Compound: O=S(=O)(Nc1cccc(-c2nc(CCO)sc2-c2ccnc(Nc3ccccc3)n2)c1F)c1c(F)cccc1F [8 (Na)]

pIC50 ([2]; Homo sapiens): > 6.70
Compound: O=S(=O)(Nc1cccc(-c2nc(CCO)sc2-c2ccnc(Nc3ccccc3)n2)c1F)c1c(F)cccc1F [Compound 8, 2,6-difluoro-N-(2-fluoro-3-(2-(2-hydroxyethyl)-5-(2-(phenylamino)pyrimidin-4-yl)thiazol-4-yl)phenyl)benzenesulfonamide]

Compound: CC(C)(C)c1nc(-c2cccc(NS(=O)(=O)c3c(F)cccc3F)c2F)c(-c2ccnc(Nc3ccccc3)n2)s1 [Compound 1, N-(3-(2-(tert-butyl)-5-(2-(phenylamino)pyrimidin-4-yl)thiazol-4-yl)-2-fluorophenyl)-2,6-difluorobenzenesulfonamide]
activity at 5 µM (B-Raf(V599E)(h)): 3 to 10%
activity at 5 µM (IR(h), activated): ≥ 50%
activity at 5 µM (MRCKβ(h)): ≥ 50%
activity at 5 µM (PKBα(h)): ≥ 50%
activity at 5 µM (IGF-1R(h), activated): ≥ 50%
activity at 5 µM (B-Raf(h)): 3 to 10%
activity at 5 µM (PDGFRα(h)): ≥ 50%
activity at 5 µM (cKit(D816H)(h)): 10 to 50%
pIC50 [3]: > 6.70
activity at 5 µM (Flt4(h)): 3 to 10%
